Data as given in patent US8119681B2, “2-[1-phenyl-5-hydroxy or methoxy-4alpha-methyl-hexahydrocyclopenta [ƒ]indazole-5-YL]ethyl phenyl derivatives as glucocorticoid receptor ligands” (Merck Sharp & Dohme Corp., priority 2006, dated 2012).

target: T1, glucocorticoid receptor (GR) (Homo sapiens, UniProt P04150); assay: Ligand binding assay (GR BIND), 3H-dexamethasone displacement, HeLa cell lysate; settings: Table 1; HeLa cell lysate, 3H-DEX
T1 construct: endogenous in cells; host or cells: HeLa (ATCC) cell lysate supernatant
T1 sequence (P04150 1-777): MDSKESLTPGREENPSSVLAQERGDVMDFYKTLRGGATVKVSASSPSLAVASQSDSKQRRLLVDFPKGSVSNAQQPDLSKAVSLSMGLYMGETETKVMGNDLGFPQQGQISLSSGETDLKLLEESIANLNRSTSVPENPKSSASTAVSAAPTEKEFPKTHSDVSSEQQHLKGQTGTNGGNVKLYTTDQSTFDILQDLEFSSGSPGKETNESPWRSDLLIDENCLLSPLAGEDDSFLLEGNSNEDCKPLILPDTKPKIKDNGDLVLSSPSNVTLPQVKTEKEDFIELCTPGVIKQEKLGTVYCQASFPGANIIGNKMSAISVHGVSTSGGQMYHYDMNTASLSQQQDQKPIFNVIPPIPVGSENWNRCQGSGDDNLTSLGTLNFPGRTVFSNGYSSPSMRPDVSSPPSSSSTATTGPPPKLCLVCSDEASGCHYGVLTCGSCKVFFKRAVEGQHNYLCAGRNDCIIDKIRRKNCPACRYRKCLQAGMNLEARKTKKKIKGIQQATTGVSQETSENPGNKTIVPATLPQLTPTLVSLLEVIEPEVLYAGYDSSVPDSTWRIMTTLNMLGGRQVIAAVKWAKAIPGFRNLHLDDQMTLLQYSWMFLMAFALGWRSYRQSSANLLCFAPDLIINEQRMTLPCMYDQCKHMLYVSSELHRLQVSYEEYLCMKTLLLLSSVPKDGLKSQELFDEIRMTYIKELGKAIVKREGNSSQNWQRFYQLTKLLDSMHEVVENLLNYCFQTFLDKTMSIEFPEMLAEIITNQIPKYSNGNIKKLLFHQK
Outline: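 HeLa cell lysate supernatant in TEGM (pH 7.2, molybdate) incubated overnight at 4 °C with 3H-dexamethasone trace (6 nM stock) and serially diluted compound, 2% EtOH final. Bound receptor captured on hydroxylapatite, filtered and counted by scintillation; IC50 calculated with dexamethasone as reference.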

Compound | Ki [nM]
C[C@]12Cc3cnn(-c4ccc(F)cc4)c3C=C1CC[C@@]2(O)CCc1cccc(F)c1[C@H](N)C(F)(F)F [Example 151, (4αS,5R)-5-(2-{2-[(1S)-1-amino-2,2,2-trifluoroethyl]-3-fluorophenyl}ethyl)-1-(4-fluorophenyl)-4α-methyl-1,4,4α,5,6,7-hexahydrocyclopenta[f]indazol-5-ol] | 1.74
C[C@]12Cc3cnn(-c4ccc(F)cc4)c3C=C1CC[C@@]2(O)CCc1cccc(F)c1[C@@H](N)C(F)(F)F [Example 152, (4αS,5R)-5-(2-{2-[(1R)-1-amino-2,2,2-trifluoroethyl]-3-fluorophenyl}ethyl)-1-(4-fluorophenyl)-4α-methyl-1,4,4α,5,6,7-hexahydrocyclopenta[f]indazol-5-ol] | 2.6
C[C@]12Cc3cnn(-c4ccc(F)cc4)c3C=C1CC[C@@]2(O)CCc1ccccc1C(=O)N1CC(=O)C1 [Example 156, 1-(2-{2-[(4αS,5R)-1-(4-fluorophenyl)-5-hydroxy-4α-methyl-1,4,4α,5,6,7-hexahydrocyclopenta[f]indazol-5-yl]ethyl}benzoyl)azetidin-3-one] | 2.9
CC(=O)Cc1ccccc1CC[C@]1(O)CCC2=Cc3c(cnn3-c3ccc(F)cc3)C[C@@]21C [Example 157, 1-(2-{2-[(4αS,5R)-1-(4-fluorophenyl)-5-hydroxy-4α-methyl-1,4,4α,5,6,7-hexahydrocyclopenta[f]indazol-5-yl]ethyl}phenyl)acetone] | 1.5
C[C@]12Cc3cnn(-c4ccc(F)cc4)c3C=C1CC[C@@]2(O)CCc1ccc(F)cc1C(N)=O [Example 159, 5-fluoro-2-{2-[(4αS,5R)-1-(4-fluorophenyl)-5-hydroxy-4α-methyl-1,4,4α,5,6,7-hexahydrocyclopenta[f]indazol-5-yl]ethyl}benzamide] | 2.96
C[C@]12Cc3cnn(-c4ccc(F)cc4)c3C=C1CC[C@@]2(O)/C=C/c1ccccc1S(N)(=O)=O [Example 160, 2-{(E)-2-[(4αS,5R)-1-(4-fluorophenyl)-5-hydroxy-4α-methyl-1,4,4α,5,6,7-hexahydrocyclopenta[f]indazol-5-yl]vinyl}benzenesulfonamide] | 0.94
C[C@]12Cc3cnn(-c4ccc(F)cc4)c3C=C1CC[C@@]2(O)CCc1ccc(F)cc1C#N [Example 163, 5-fluoro-2-{2-[(4αS,5R)-1-(4-fluorophenyl)-5-hydroxy-4α-methyl-1,4,4α,5,6,7-hexahydrocyclopenta[f]indazol-5-yl]ethyl}benzonitrile] | 0.17
C[C@]12Cc3cnn(-c4ccc(F)c(F)c4)c3C=C1CC[C@@]2(O)CCc1cccc(F)c1C(N)=O [Example 168, 2-{2-[(4α,5R)-1-(3,4-difluorophenyl)-5-hydroxy-4α-methyl-1,4,4α,5,6,7-hexahydrocyclopenta[f]indazol-5-yl]ethyl}-6-fluorobenzamide] | 2.16
C[C@]12Cc3cnn(-c4ccc(F)cc4)c3C=C1CC[C@@]2(O)CCc1ccc(Cl)cc1C(N)=O [Example 170, 5-chloro-2-{2-[(4αS,5R)-1-(4-fluorophenyl)-5-hydroxy-4α-methyl-1,4,4α,5,6,7-hexahydrocyclopenta[f]indazol-5-yl]ethyl}benzamide] | 2.12
C[C@]12Cc3cnn(-c4ccc(F)c(F)c4)c3C=C1CC[C@@]2(O)CCc1ccccc1C(N)=O [Example 172, 2-{2-[(4αS,5R)-1-(3,4-difluorophenyl)-5-hydroxy-4α-methyl-1,4,4α,5,6,7-hexahydrocyclopenta[f]indazol-5-yl]ethyl}benzamide] | 6.59
Cc1ccc(C(N)=O)c(CC[C@]2(O)CCC3=Cc4c(cnn4-c4ccc(F)cc4)C[C@@]32C)c1 [Example 174, 2-{2-[(4αS,5R)-1-(4-fluorophenyl)-5-hydroxy-4α-methyl-1,4,4α,5,6,7-hexahydrocyclopenta[f]indazol-5-yl]ethyl}-4-methylbenzamide] | 4.76
C[C@]12Cc3cnn(-c4ccc(Cl)cc4)c3C=C1CC[C@@]2(O)CCc1cccc(F)c1C(N)=O [Example 185, 2-{2-[(4αS,5R)-1-(4-chlorophenyl)-5-hydroxy-4α-methyl-1,4,4α,5,6,7-hexahydrocyclopenta[f]indazol-5-yl]ethyl}-6-fluorobenzamide] | 1.93
COc1cccc(CC[C@]2(O)CCC3=Cc4c(cnn4-c4ccc(F)cc4)C[C@@]32C)c1C(N)=O [Example 189, 2-{2-[(4αS,5R)-1-(4-fluorophenyl)-5-hydroxy-4α-methyl-1,4,4α,5,6,7-hexahydrocyclopenta[f]indazol-5-yl]ethyl}-6-methoxybenzamide] | 1.55
Cc1cccc(CC[C@]2(O)CCC3=Cc4c(cnn4-c4cccc(F)c4)C[C@@]32C)c1C(N)=O [Example 191, 2-{2-[(4αS,5R)-1-(3-fluorophenyl)-5-hydroxy-4α-methyl-1,4,4α,5,6,7-hexahydrocyclopenta[f]indazol-5-yl]ethyl}-6-methylbenzamide] | 2.51
C[C@]12Cc3cnn(-c4ccc(F)cc4)c3C=C1CC[C@@]2(O)CCc1cccc(F)c1CC(N)=O [Example 194, 2-(2-fluoro-6-{2-[(4αS,5R)-1-(4-fluorophenyl)-5-hydroxy-4α-methyl-1,4,4α,5,6,7-hexahydrocyclopenta[f]indazol-5-yl]ethyl}phenyl)acetamide] | 1.48
C[C@]12Cc3cnn(-c4ccc(F)cc4)c3C=C1CC[C@@]2(O)CCc1cccc(Cl)c1CC(N)=O [Example 197, 2-(2-chloro-6-{2-[(4αS,5R)-1-(4-fluorophenyl)-5-hydroxy-4α-methyl-1,4,4α,5,6,7-hexahydrocyclopenta[f]indazol-5-yl]ethyl}phenyl)acetamide] | 1.41
CCC(O)(C(N)=O)c1ccccc1CC[C@]1(O)CCC2=Cc3c(cnn3-c3ccc(F)cc3)C[C@@]21C (stereo partly drawn) [Example 199, 2-(2-{2-[(4αS,5R)-1-(4-fluorophenyl)-5-hydroxy-4α-methyl-1,4,4α,5,6,7-hexahydrocyclopenta[f]indazol-5-yl]ethyl}phenyl)-2-hydroxybutanamide] | 4.55
CC(C)C(O)(C(N)=O)c1ccccc1CC[C@]1(O)CCC2=Cc3c(cnn3-c3ccc(F)cc3)C[C@@]21C (stereo partly drawn) [Example 201, 2-(2-{2-[(4αS,5R)-1-(4-fluorophenyl)-5-hydroxy-4α-methyl-1,4,4α,5,6,7-hexahydrocyclopenta[f]indazol-5-yl]ethyl}phenyl)-2-hydroxy-3-methylbutanamide] | 5.62

target: T2, human GR (Homo sapiens, UniProt P04150); assay: Trans-Activation Modulation of Glucocorticoid Receptor (GRAMMER), MMTV-LUC reporter gene; type: cell-based; design: endogenous in cells; settings: Table 1, Emax relative to 300 nM dexamethasone
T2 sequence (P04150 1-777): T1 sequence (P04150 1-777)

Compound | Transactivation A549 Cells GRAMMER Emax (%)
C[C@]12Cc3cnn(-c4ccc(F)cc4)c3C=C1CC[C@@]2(O)/C=C/c1ccccc1S(N)(=O)=O [Example 160, 2-{(E)-2-[(4αS,5R)-1-(4-fluorophenyl)-5-hydroxy-4α-methyl-1,4,4α,5,6,7-hexahydrocyclopenta[f]indazol-5-yl]vinyl}benzenesulfonamide] | 30
